Experimental data taken from patent US20240238459A1, “Granzyme-Activatable Membrane-Interacting Peptides and Methods of Use” (priority 2021, published 2024).
Peptide text beside a SMILES is read from it. * marks the point of attachment. DOTA = O=C(O)CN1CCN(CC(=O)O)CCN(CC(=O)*)CCN(CC(=O)O)CC1; Ahx = NCCCCCC(=O)O

Legend:
[1] = PET/CT, biodistribution and autoradiography in mice bearing CT26 tumors treated with vehicle or CPI; settings: both, mouse, in vivo, iv, total radioactivity
Protocol: (§1) The effect of immunomodulatory therapies on ^64Cu-GRIP B biodistribution was next evaluated in mice bearing subcutaneous CT26 tumors, a mouse colorectal cancer cell line that responds to immunomodulatory therapy. Mice were treated with three intraperitoneal infusions of vehicle or anti-PD1 plus anti-CTLA4 CPIs over 11 days. The radiotracer was injected on day 14, and tumor uptake was monitored over several time points out to 24 hours post injection on PET.
(§2) A biodistribution study at 2 hours post injection was performed to determine relative changes in tracer uptake between tissues in the vehicle and treated groups.
(§3) All animal experiments were approved by the Institutional Animal Care and Use Committee at UCSF. Four to six week old male or female balb/c mice and C57BL6/J mice were purchased from Jackson Laboratory and housed with free access to the water and food. All mice were inoculated with 5×10^6 CT26, MC38, or EMT6 cells in a mixture of media and Matrigel (Corning) (v/v 1:1) subcutaneously into the left shoulder. Anti-mouse PD-1 (CD279) (BE0146) and anti-mouse CTLA-4 (CD152) (BE0164) were purchased from Bio X Cell and stored at 4° C. during the treatment studies. Mice bearing subcutaneous tumors were received anti-mouse CTLA-4 (200 ug) or/and anti-mouse PD-1 (200 ug) and as a combination therapy or PBS as the vehicle on days 5, 8, 11 following the tumor inoculation. Mice were weighed and the tumor volume were measured with calipers on the same day of the treatment. On day 14, all mice were used for PET/CT or BioD studies.
(§4) ^64Cu-L-GRIP B or ^64Cu-D-GRIP B (˜100 μCi/mouse) in 100-150 μL of 10% DMSO and 10% Tween 80 in saline was injected via tail vein. After a period of uptake time, mice were anesthetized with isoflurane (˜2%), and imaged with a microPET/CT scanner (Inveon, Siemens). For static imaging, mice were scanned for 30 min for PET data acquisition and 10 min for CT data acquisition. For the dynamic acquisitions, the mice were anesthetized, positioned on the scanner bed, and injected intravenously with radiotracer. The dynamic acquisition was performed for scanned for 60 min followed by a 10 min CT acquisition.
(§5) At dedicated time points post radiotracer injection, mice were euthanized with CO2(g) asphyxiation, and the blood was collected by direct cardiac puncture. Tissues were harvested, weighed and counted on a gamma counter (Hidex). The amount of radioactivity in the tissues was determined by comparison with a standard of known activity. The samples were decay-corrected and expressed as the percentage of the injected dose/weight of the harvested tissues (% ID/g).
(§6) Tumors or designated tissue were flash frozen in OCT in dry ice. The tissues were sectioned with a microtome (Leica) into slices with 10-20 um thickness and directly mounted on glass slides (VWR). GE Storage Phosphor Screen were exposed by such slides with radioactive tissue. After 10 half-live of copper-64, the screen was developed on a phosphorimager (Typhoon 9400). The images were further analyzed by using Fiji software.

[2] = tested on: subcutaneous CT26 tumors; assay: as above
Protocol: as §1, §2, §3, §4, §5, §6

[3] = tested on: S. aureus; assay: PET in S. aureus myositis model; format: in vivo, mouse
Description: Granzyme B responses to other bacterial strains has also been tested. Live or heat killed S. aureus were implanted into the deltoids of mice to understand immune responses on PET. […] One possibility for the difference in response is that granzyme B is not uniformly employed to attack all pathogens, and the immune cells may customize their granzyme response based on the features of the pathogen.

[4] = tested on: E. coli; assay: PET/CT and biodistribution in E. coli myositis in germline GZMB knockout mice; format: in vivo, mouse
Protocol: To confirm the radiotracer uptake in the abscess was due to granzyme B, imaging studies were performed in germline GZMB knockout mice. The mice received live and heat killed E. Coli and were injected and imaged following the same protocol for wild type mice.

[5] = tested on: K. pneumoniae; assay: PET in K. pneumoniae myositis model; format: in vivo, mouse
Description: Performing additional myositis studies with other bacterial strains yielded unexpected and variable granzyme “responses” on PET. […] In both mouse cohorts, radiotracer uptake in the treated muscles was higher than in the normal muscle.

[6] = tested on: MC38; assay: Biodistribution and PET/CT in mice bearing MC38 tumors treated with vehicle or CPI; format: in vivo, mouse; settings: MC38 cohort, biodistribution
Protocol: Next, the biodistribution of ^64Cu-GRIP B and ^64Cu-D-GRIP B was compared in mice bearing MC38 (mouse colorectal cancer) or EMT6 (mouse mammary breast carcinoma) xenografts. The mice were treated with vehicle or anti-PD1 and anti-CTLA4 CPIs following the schema used for the CT26 cohort.

[7] = biodistribution at 2 hours post injection

Q: Which tissue uptake per volume at 10 min [1] does the source give for `CC[C@H](C)[C@H](NC(=O)[C@H](CCCCN)NC(=O)CNC(=O)[C@H](CC(C)C)NC(=O)[C@H](Cc1ccccc1)NC(=O)[C@H](CCCCN)NC(=O)[C@H](CO)NC(=O)[C@H](Cc1ccccc1)NC(=O)[C@H](Cc1c[nH]c2ccccc12)NC(=O)[C@H](CCC(N)=O)NC(=O)[C@@H](NC(=O)[C@H](Cc1ccccc1)NC(=O)CCCCCNC(=O)CN1CCN(CC(=O)O)CCN(CC(=O)O)CCN(CC(=O)O)CC1)C(C)C)C(=O)N[C@@H](CCC(=O)O)C(=O)N1CCC[C@H]1C(=O)N[C@@H](CC(=O)O)C(=O)N[C@H](C(=O)N[C@@H](CO)C(=O)N[C@@H](CCC(N)=O)C(=O)N[C@H](C(=O)N[C@@H](CCC(N)=O)C(=O)N[C@@H](CC(=O)O)C(=O)N1CCC[C@H]1C(=O)N[C@@H](CC(N)=O)C(=O)N[C@@H](CC(=O)O)C(=O)N[C@@H](CCC(N)=O)C(=O)N[C@@H](Cc1ccc(O)cc1)C(=O)N[C@@H](CCC(=O)O)C(=O)N1CCC[C@H]1C(=O)N[C@@H](Cc1ccccc1)C(=O)O)C(C)C)C(C)C` [^64Cu-GRIP B, metal not drawn] ({DOTA-Ahx}-FVQWFSKFLGKIEPDVSQVQDPNDQYEPF-OH) here?
A: Its tissue uptake per volume at 10 min is about 5 %ID/mL.

Q: And the “time course of uptake in treated tumors” value ([2]; CPI (anti-PD1 plus anti-CTLA4) treated, static PET/CT ROI analysis)?
A: The value was “steadily rose from 0.5 to 2-4 hours post injection”.

Q: What about the “persistence of radioactivity in tumors” value ([2]; CPI treated, PET) of the same compound?
A: The value was “persisted in tumors out to 24 hours post injection”.

Q: What about the “digital autoradiography signal, treated versus control tumor” value ([2]; CT26 tumor slices, co-aligned with GZMB and CD3) of the same compound?
A: Its value is “significantly higher”.

Q: What about the “tumoral uptake, CPI versus vehicle treated arm” value ([2]; PET, 2 hours post injection) of the same compound?
A: The value was “significantly higher”.

Q: And the “induction of radiotracer uptake in tumors, treated compared to control mice” value [2, 7]?
A: The value was about 50%.

Q: And the “tracer uptake within the spleen, treated versus vehicle” value [2, 7]?
A: The value was “significant increase”.

Q: And the “radiotracer uptake in vehicle tumors by comparison with CPI treated” value ([2]; vehicle treated mice, dynamic PET)?
A: Its value is “significantly lower and did not change over time”.

Q: What about the “correlation of tumor to blood ratios with percent change in tumor volume” value ([2]; wild type mice, day 11) of the same compound?
A: Its value is “significantly correlated”.

Q: And the “correlation of tumoral uptake with percent change in tumor volume” value ([2]; wild type mice, day 11 compared to day 0)?
A: Its value is “significantly correlated”.

Q: And the “granzyme B response in live bacterial abscess compared to that of E. coli” value ([3]; S. aureus)?
A: Its value is “more modest granzyme B response”.

Q: And the “uptake in live bacterial abscess versus heat killed abscess” value ([3]; S. aureus)?
A: The value was “significantly higher”.

Q: What about the “time course of radiotracer uptake” value ([3]; S. aureus deltoid implant) of the same compound?
A: Its value is “rising rapidly from 0-6 hours post injection and plateauing from 6-24 hours”.

Q: And the “uptake in infected muscle, GZMB knockout compared to wild type” value ([4]; PET/CT and biodistribution)?
A: The value was “lower”.

Q: What about the “difference in tracer uptake between normal muscle, live and heat killed E. Coli treated muscle” value ([4]; knockout strain) of the same compound?
A: Its value is “negligible difference”.

Q: And the “uptake in treated muscles versus normal muscle” value [5]?
A: Its value is “higher”.

Q: What about the “uptake in live bacterial infection versus contralateral heat killed bacteria” value ([5]; deltoid muscles) of the same compound?
A: The value was “higher”.

Q: And the “tumoral uptake after CPI compared to controls” value [6]?
A: The value was “significant increase”.
